In patent US12065428B2, “Anti-viral compounds” (Aligos Therapeutics, Inc., priority 2021, dated 2024):
Like-named read-outs stand apart in the source and are kept apart here.

Columns and labels:
SARS-Cov-2 3CLpro = target: T1, SARS-Cov-2 3CLpro (Severe acute respiratory syndrome coronavirus 2, UniProt P0DTD1); experiment: SARS-Cov-2 3CLpro and HRV3C duplex assay (SAMDI-MS): 3CLpro; type: biochemical
T1 construct: SARS-Cov-2 3CLpro and HRV3C Duplex Assay

[1] = test system: human beta-coronavirus OC43; experiment: OC43 coronavirus assay in HeLa cells (cytopathic effect, cell-titer-glo); type: cell-based
[2] = Cytotoxicity plates without OC43 virus in HeLa cells; type: cell-based; conditions: human, HeLa cells (uninfected), class symbols
Method: The human beta-coronavirus OC43 was purchased from ATCC (Manassas, VA) and propagated using HCT-8 human colorectal epithelial cells (ATCC). HeLa human cervical epithelial cells (ATCC) were used as susceptible host cell lines and were cultured using EMEM media, supplemented with 10% fetal bovine serum (FBS), 1% (v/v) penicillin/streptomycin (P/S), 1% (v/v) HEPES and 1% (v/v) cellgro Glutagro™ supplement (all Corning, Manassas, VA) at 37° C. For the OC43 antiviral assay, 1.5×10^4 HeLa cells per well were plated in 100 μL complete media in white 96-well plates with clear bottoms at 37° C. for up to 24 h to facilitate attachment and allow cells to recover from seeding stresses. Next day, the cell culture medium was removed. Serially diluted compounds in 100 μL assay media (EMEM, 2% FBS, 1% P/S, 1% cellgro Glutagro™ supplement, 1% HEPES) were added to the cells and incubated for 4H at 37° C. in a humidified 5% CO2 incubator. 100 μL of OC43 virus stock was diluted to a concentration known to produce optimal cytopathic effect, inducing 80-90% reduction in cell viability. 96-well plates were incubated for 6 (HeLa) days at 33° C.; each plate contains uninfected control wells as well as virus-infected wells that were not treated with compound. Cytotoxicity plates without the addition of OC43 virus were carried out in parallel. At the end of the incubation period, 100 μL cell culture supernatant was replaced with 100 μL cell-titer-glo reagent (Promega, Madison, WI) and incubated for at least 10 min at rt prior to measuring luminescence. Luminescence was measured on a Perkin Elmer (Waltham, MA) Envision plate reader. Antiviral % inhibition was calculated as follows: [(Compound treated cells infected sample)−(no compound infected control)]/[(Uninfected control)−(no compound infected control)]*100; Using GraphPad (San Diego, CA) prism software version 8.3.1, the antiviral dose-response plot was generated as a sigmoidal fit, log(inhibitor) vs response-variable slope (four parameters) model and the EC50 was calculated which is the predicted compound concentration corresponding to a 50% inhibition of the viral cytopathic effect.

[3] = test system: SARS-CoV-2-GHB-03021/2020; experiment: microbe, parasite or virus in culture; type: cell-based
human cathepsin L = target: T2, human cathepsin L (Homo sapiens, UniProt P07711); experiment: Cathepsin L assay (Z-FR-AMC fluorescence); type: biochemical; conditions: 10 pM human cathepsin L, 30 mins preincubation; class symbols
T2 construct: purchased R&D Systems
T2 sequence (P07711 114-333): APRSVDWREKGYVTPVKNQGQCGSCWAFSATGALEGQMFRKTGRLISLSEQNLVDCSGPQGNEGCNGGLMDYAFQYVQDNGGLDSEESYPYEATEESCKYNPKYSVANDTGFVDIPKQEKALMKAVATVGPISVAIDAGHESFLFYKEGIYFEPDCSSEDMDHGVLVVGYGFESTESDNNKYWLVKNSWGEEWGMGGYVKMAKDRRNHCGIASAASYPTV
Method: For the cathepsin L assay, 10 pM of human cathepsin L (R&D Systems; Minneapolis, MN) was preincubated for 30 mins with test compounds. Reactions were initiated by the addition of a peptide substrate Z-FR-AMC (final concentration 2 μM, Anaspec; Fremont, CA). Fluorescence was measured at 2-minute intervals for 30 mins using a 355/460 excitation/emission filter module on an Envision plate reader (Perkin Elmer; Waltham, MA). The IC50 values were calculated for each assay by fitting the curves using a four-parameter equation in GraphPad Prism.

HRV3C = target: T3, HRV3C (Human rhinovirus 14, UniProt P03303); experiment: biochemical; conditions: HRV3C, duplex assay, 30 mins preincubation; class symbols; read-out: HRV IC50
T3 construct: SARS-Cov-2 3CLpro and HRV3C Duplex Assay
T3 sequence (P03303 1538-1719): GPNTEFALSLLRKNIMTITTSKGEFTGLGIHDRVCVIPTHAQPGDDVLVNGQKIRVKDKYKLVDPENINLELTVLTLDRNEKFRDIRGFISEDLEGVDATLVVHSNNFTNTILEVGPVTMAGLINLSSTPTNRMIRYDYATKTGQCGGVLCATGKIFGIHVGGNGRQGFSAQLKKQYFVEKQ

[4] = 3CLpro, duplex assay, 30 mins preincubation, class symbols, read-out: SARS-Cov-2 IC50
[5] = Betacoronavirus 1, 144 h, OC43 in HeLa cells, 6 days at 33° C., class symbols, read-out: EC50
[6] = Severe acute respiratory syndrome coronavirus 2, Vero C1008, 96 h; read-out: VeroE6 + CP (EC50)

SMILES | IC50 (SARS-Cov-2 3CLpro; [4]) [nM] | EC50 [1, 5] [nM] | CC50 at 6 days [2] [nM] | EC50 ([3]; Severe acute respiratory syndrome coronavirus 2, Vero C1008, 96 h, read-out: VeroE6 + CP (EC50)) [nM] | IC50 (human cathepsin L) [nM] | EC50 [3, 6] [nM] | IC50 (HRV3C) [nM] | EC50 ([1]; Betacoronavirus 1, OC43, HeLa) [nM] | IC50 (SARS-Cov-2 3CLpro) [nM]
O=C(NC1CC1)C(=O)[C@H](C[C@@H]1CCNC1=O)NC(=O)[C@@H]1CC2(CCN1C(=O)[C@H]1C[C@@]13CCCc1ccccc13)CC2 (relative stereo) [Compound 34A, (S)—N—((S)-4-(cyclopropylamino)-3,4-dioxo-1-((S)-2-oxopyrrolidin-3-yl)butan-2-yl)-6-((1S*,2S*)-3′,4′-dihydro-2′H-spiro[cyclopropane-1,1′-naphthalene]-2-carbonyl)-6-azaspiro[2.5]octane-5-carboxamide] | 200 to 2000 | 100 to 1000 | ≥ 100000 | 1000 to 10000 | 1000 to 10000 |  |  |  | 
O=C(NC1CC1)C(=O)[C@H](C[C@@H]1CCNC1=O)NC(=O)[C@@H]1CC2(CCN1C(=O)[C@@H]1C[C@]13CCCc1ccccc13)CC2 (relative stereo) [Compound 34B] | 20 to 200 | 100 to 1000 | 10000 to 100000 |  | 1000 to 10000 | < 1000 |  |  | 
Cn1ncc2c1CC(C(=O)N1CCC3(CC3)C[C@H]1C(=O)NC(C[C@@H]1CCNC1=O)C(=O)C(=O)NC1CC1)CC2 (stereo partly drawn) [Compound 14, (5S)—N-(4-(cyclopropylamino)-3,4-dioxo-1-((S)-2-oxopyrrolidin-3-yl)butan-2-yl)-6-(1-methyl-4,5,6,7-tetrahydro-1H-indazole-6-carbonyl)-6-azaspiro[2.5]octane-5-carboxamide] | 20 to 200 |  | ≥ 100000 |  | ≥ 10000 | 10000 to 100000 | 200 to 2000 | > 10000 | 
Cc1ccc2cc(C(=O)N3CCC4(CC4)C[C@H]3C(=O)N[C@@H](C[C@@H]3CCNC3=O)C(=O)C(=O)NC3CC3)sc2c1 [Compound 15, (3S)—N-cyclopropyl-3-{[(5S)-6-(6-methyl-1-benzothiophene-2-carbonyl)-6-azaspiro[2.5]octan-5-yl]formamido}-2-oxo-4-[(3S)-2-oxopyrrolidin-3-yl]butanamide] | < 20 | 100 to 1000 | ≥ 100000 |  | 1000 to 10000 | < 1000 | 2000 to 20000 |  | 
O=C(NC1CC1)C(=O)[C@H](C[C@@H]1CCNC1=O)NC(=O)[C@@H]1CC2(CCN1C(=O)c1ccc3c(c1)OCO3)CC2 [Compound 16, (3S)-3-{[(5S)-6-(2H-1,3-benzodioxole-5-carbonyl)-6-azaspiro[2.5]octan-5-yl]formamido}-N-cyclopropyl-2-oxo-4-[(3S)-2-oxopyrrolidin-3-yl]butanamide] |  | 1000 to 10000 | ≥ 100000 |  | ≥ 10000 | 1000 to 10000 | 2000 to 20000 |  | 20 to 200
Cn1nc(C(=O)N2CCC3(CC3)C[C@H]2C(=O)NC(C[C@@H]2CCNC2=O)C(=O)C(=O)NC2CC2)cc1-c1ccccc1 (stereo partly drawn) [Compound 17, (5S)—N-(4-(cyclopropylamino)-3,4-dioxo-1-((S)-2-oxopyrrolidin-3-yl)butan-2-yl)-6-(1-methyl-5-phenyl-1H-pyrazole-3-carbonyl)-6-azaspiro[2.5]octane-5-carboxamide] | 200 to 2000 | 1000 to 10000 | ≥ 100000 |  | ≥ 10000 | 1000 to 10000 | 2000 to 20000 |  | 
O=C(NC1CC1)C(=O)C(C[C@@H]1CCNC1=O)NC(=O)[C@@H]1CC2(CCN1C(=O)c1noc(-c3ccccc3)n1)CC2 (stereo partly drawn) [Compound 18, N-cyclopropyl-2-oxo-4-[(3S)-2-oxopyrrolidin-3-yl]-3-{[(5S)-6-(5-phenyl-1,2,4-oxadiazole-3-carbonyl)-6-azaspiro[2.5]octan-5-yl]formamido}butanamide] | 20 to 200 | 1000 to 10000 | ≥ 100000 |  | ≥ 10000 | 1000 to 10000 | 200 to 2000 |  | 
